Experimental data: PMC9964244, “Effects of Dimerization, Dendrimerization, and Chirality in p-BthTX-I Peptide Analogs on the Antibacterial Activity and Enzymatic Inhibition of the SARS-CoV-2 PL^pro Protein” (Pharmaceutics, 2023)
Values after ≈ are worked out from the molar mass of the structure shown. Values joined by “and” are separate entries in the source; they are usually repeats but may differ in a detail not shown here. Identical values can stand only once. Bridge positions count the residues as written; N and C are the ends. Peptide text beside a SMILES is read from it. I, II: the chains in the order shown.

Legend:
[1] = tested on: K. pneumoniae ATCC 700603; assay: MIC/MBC, broth microdilution and subculture on CA-MH agar; type: cell-based, Klebsiella pneumoniae; details: broth microdilution, triplicate, mode
Method: (§1) Bacterial isolates from the American Type Culture Collection (ATCC) were obtained from the Collection of Reference Bacteria on Health Surveillance, Oswaldo Cruz Foundation (FIOCRUZ) after phenotypic and molecular quality control and were registered at SISGEN under the number ADB556B. The minimum inhibitory concentration (MIC) was determined as previously described by Santos-Filho et al., 2021 [17], using the broth microdilution method. The MIC was the lowest concentration that inhibited microbial growth. […] MBC was defined as the lowest peptide concentration with no visible growth on the plate. […] The assay was performed in triplicate, and the values represent the mode of the obtained results.
(§2) Thus, to assess the relevance of the antimicrobial effect of p-Bth analogs, their Minimum Inhibitory Concentration (MIC) and Minimum Bactericidal Concentration (MBC) were analyzed against relevant bacteria. The evaluated strains were the Gram-positives: S. aureus ATCC 25923, S. epidermidis ATCC 35984, E. faecalis ATCC 29212, and E. faecium ATCC […] (Table 1); and the Gram-negatives: K. pneumoniae ATCC 700603, E. coli ATCC 25922, A. baumannii ATCC 19606, and P. aeruginosa ATCC 27853 (Table 2).

SARS-CoV-2 = details: Vero cells; cited from earlier work
Text: In December 2019, the first case of viral infection with a new coronavirus was reported in China, which was later named severe acute respiratory syndrome coronavirus 2 (SARS-CoV-2), and the disease caused by this was named coronavirus-2019 or COVID-19 by the WHO. This disease has taken on great proportions, causing a pandemic scenario and great global concern. Even with the improvements in disease control, there is still a need for new, specific antiviral therapeutic options. As antimicrobial peptides also have antiviral action, the L-dimer, D-dimer and L-tetramer, in addition to ...

SARS-CoV-2 PL^pro = target: T1, SARS-CoV-2 PL^pro (Severe acute respiratory syndrome coronavirus 2, UniProt P0DTD1); details: PL^pro from SARS-CoV-2, ref 19 (Freire et al., 2021), cited from earlier work
T1 construct: made in house
Method: Table 3 PL^pro activity by peptide analogs of p-BThTX-I at the concentration of 10 μM and IC50 values. Representative concentration–response inhibition curves against PL^pro from SARS-CoV-2 are presented in the Supplementary Material (Figure S7). | column: Inhibition (%) at 10 µM; IC50 μM

[2] = Carboxyfluorescein leakage, vesicle permeabilization; details: 80% POPE / 20% POPG vesicles; peptide 50 µM
Method: The permeabilization of lipid vesicles containing carboxyfluorescein was carried out using a spectrofluorometer model Fluorolog-3 FL3-122 from Horiba Jobin Yvon (Newark, NJ, USA) (dimers and tetramers) or in a spectrofluorometer model RF-1501 Shimadzu (Kyoto, Japan) (monomer). For RF-1501, the quantification of the fluorescence intensity was performed every 20 s. Two vesicle compositions were used: (1) 80% 1-palmitoyl-2-oleoyl-sn-glycero-3-phosphoethanolamine (POPE) and 20% 1-palmitoyl-2-oleoyl-sn-glycero- 3-phospho-(10-rac-glycerol) (POPG); and (2) 95% 1-palmitoyl-2-oleoyl-sn-glycero-3-phosphocholine (POPC) and 5% POPG. The percentage of leakage was obtained through the following equation:% release = (Fmeasured − Finitial)/(Ffinal − Finitial) × 100, where Ffinal is the average fluorescence value obtained after the addition of Triton, Finitial is the average of the initial values of the run before the addition of the peptide, and Fmeasured are the fluorescence values obtained at each point of the experiment.
Here, we evaluated two systems of membrane mimetics, including vesicles with a composition of 80% POPE and 20% POPG, and another with 95% POPC and 5% POPG. The first is widely used as a model of bacterial membranes, specifically of E. coli membrane. Membranes constituting POPC and POPG were used to mimic mammalian membranes due to the presence of choline-containing lipids in animal membranes.

P. aeruginosa ATCC 27853 = assay: MIC/MBC, broth microdilution and subculture on CA-MH agar; type: cell-based, Pseudomonas aeruginosa; details: broth microdilution, triplicate, mode
Method: as §1, §2

E. faecium ATCC 700221 = assay: as above; type: cell-based, Enterococcus faecium; set-up: key to Act (antibacterial activity): Bc, bactericidal; Bs, bacteriostatic
Method: as §1, §2

A. baumannii ATCC 19606 = assay: as above; type: cell-based, Acinetobacter baumannii; details: triplicate, mode
Method: as §1, §2

E. faecalis ATCC 29212 = assay: as above; type: cell-based; set-up: key to Act (antibacterial activity): Bc, bactericidal; Bs, bacteriostatic
Method: as §1, §2

[3] = tested on: S. epidermidis ATCC 35984; assay: as above; type: cell-based; set-up: key to Act (antibacterial activity): Bc, bactericidal; Bs, bacteriostatic
Method: as §1, §2

E. coli ATCC 25922 = assay: as above; type: cell-based; set-up: key to Act (antibacterial activity): Bc, bactericidal; Bs, bacteriostatic
Method: as §1, §2

erythrocytes = tested on: erythrocytes; set-up: method as in earlier work; details: at a concentration of 512 µg/mL; ref 17 (Santos-Filho et al., 2021); cited from earlier work
S. aureus ATCC 25923 = assay: MIC/MBC, broth microdilution and subculture on CA-MH agar; type: cell-based, Staphylococcus aureus; set-up: key to Act (antibacterial activity): Bc, bactericidal; Bs, bacteriostatic
Method: as §1, §2

[4] = MBC/MIC ratio >4 suggests bacteriostatic
[5] = broth microdilution, triplicate, mode
[6] = subculture on CA-MH agar, 37 °C, 24 h, triplicate, mode

SMILES: CC(C)C[C@H](NC(=O)[C@H](Cc1c[nH]cn1)NC(=O)[C@H](Cc1ccc(O)cc1)NC(=O)[C@H](CCCNC(=N)N)NC(=O)[C@H](Cc1ccc(O)cc1)NC(=O)[C@H](CCCCN)NC(=O)[C@@H](N)CCCCN)C(=O)N[C@@H](CCCCN)C(=O)N1CCC[C@H]1C(=O)N[C@@H](Cc1ccccc1)C(=O)NCCCC[C@H](NC(=O)[C@H](Cc1ccccc1)NC(=O)[C@@H]1CCCN1C(=O)[C@H](CCCCN)NC(=O)[C@H](CC(C)C)NC(=O)[C@H](Cc1c[nH]cn1)NC(=O)[C@H](Cc1ccc(O)cc1)NC(=O)[C@H](CCCNC(=N)N)NC(=O)[C@H](Cc1ccc(O)cc1)NC(=O)[C@H](CCCCN)NC(=O)[C@@H](N)CCCCN)C(N)=O [L-dimer, [des-Cys^11,Lys^12,Lys^13-(p-BthTX-I)2K]] (I: H-KKYRYHLKPFK-NH2 / II: H-KKYRYHLKPF; amide I:11-II:C; N-terminus assumed)
- MIC [1]: >128 μg/mL and >44 µM
- percentage inhibition of SARS-CoV-2 infection (SARS-CoV-2): 27%
- Inhibition (%) at 10 µM (SARS-CoV-2 PL^pro; peptide 10 µM): 98.05 ± 1.62%
- IC50 (SARS-CoV-2 PL^pro): 2400 ± 100 nM
- carboxyfluorescein leakage, maximum percentage [2]: 15%
- MIC (P. aeruginosa ATCC 27853): >512 μg/mL and >178 µM
- Act (antibacterial activity) (E. faecium ATCC 700221; [4]): Bs
- MIC (E. faecium ATCC 700221; [5]): 16 μg/mL and 5 µM
- MBC (E. faecium ATCC 700221; [6]): >64 µg/mL
- MIC (A. baumannii ATCC 19606; broth microdilution): 89 µM and 256 μg/mL
- MBC (A. baumannii ATCC 19606; subculture on CA-MH agar, 37 °C, 24 h): >512 µg/mL
- Act (antibacterial activity) (E. faecalis ATCC 29212; [4]): Bc
- MIC (E. faecalis ATCC 29212; [5]): 22 µM and 64 μg/mL
- MBC (E. faecalis ATCC 29212; [6]): 128 µg/mL (≈ 44.6 µM)
- Act (antibacterial activity) [3, 4]: Bc
- MIC [3, 5]: 8 μg/mL and 2 µM
- MBC [3, 6]: 16 µg/mL (≈ 5.58 µM)
- Act (antibacterial activity) (E. coli ATCC 25922; [4]): Bc
- MIC (E. coli ATCC 25922; [5]): 32 μg/mL and 11 µM
- MBC (E. coli ATCC 25922; [6]): 64 µg/mL (≈ 22.3 µM)
- hemolysis rate (erythrocytes): below 5%
- Act (antibacterial activity) (S. aureus ATCC 25923; [4]): Bc
- MIC (S. aureus ATCC 25923; [5]): 32 μg/mL and 11 µM
- MBC (S. aureus ATCC 25923; [6]): 128 µg/mL (≈ 44.6 µM)
